# Earlier results as cited in patent US20110217337A1, “BIOACTIVE AGENT FOR BONE TISSUE ENGINEERING” (UNIVERSITY OF CONNECTICUT, priority 2010, published 2011).
# What was measured:
# osteoblast = conditions: cited from earlier work
# cell proliferation = conditions: cited from earlier work
# osteogenesis = conditions: via the PKA pathway; cited from earlier work
# bone formation = conditions: via the PKA pathway; cited from earlier work
# cAMP receptors = conditions: in vivo; cited from earlier work
SMILES,osteoblast proliferation (osteoblast),cell proliferation (cell proliferation),in vitro osteogenesis (osteogenesis),in vivo bone formation (bone formation),activation of cAMP receptors (cAMP receptors)
Nc1ncnc2c1nc(Br)n2[C@@H]1O[C@@H]2COP(=O)(O)O[C@H]2[C@H]1O [8-Br-cAMP],inhibits osteoblast proliferation,–,–,–,–
"CCCC(=O)Nc1ncnc2c1ncn2[C@@H]1O[C@@H]2COP(=O)(O)O[C@H]2[C@H]1OC(=O)CCC [db-cAMP, N^6,2′-O-dibutyryladenosine-3′,5′-cyclic monophosphate]",–,inhibit cell proliferation,enhances,enhances,activate all cAMP receptors non-specifically
